In patent US20250339415A1, “DISULFIDE COMPOUNDS AS MEDICAMENTS” (CYTACOAT AB, priority 2021, published 2025):
Read-outs that look alike come from different tables or passages of the source.

Assays:
Assay type in all cases: cell-based
Candida albicans = assay: Minimum inhibitory concentration (MIC), visible growth, YPD broth; details: for MIC: Candida albicans
Experimental: (§1) • 1. Using a sterile inoculating loop, transfer bacteria/Candida albicans from frozen stock culture and streak them on a fresh LA plate. • 2. Incubate the plate at 37° C. overnight (o/n) (18-24 h).
(§2) • 1. Prepare bacterial culture by adding 20 ml Mueller Hinton broth (*) to a 250-ml Erlenmeyer flask with sidearm. • 2. Using a sterile inoculating loop, pick approximately 10 colonies from the o/n bacterial culture and transfer bacteria to the flask. • 3. Incubate the E-flask with bacteria on a rotating shaker at 37° C. until OD590=0.40. This OD should equal an approximate bacterial count of 1×10^8 cfu/ml (**) • This is measured using a colorimeter (or spectrophotometer). Set reference and press R (=reference) first, then measure the bacterial culture by pressing T (=test). • 4. At OD590 0.40, serially dilute the bacterial suspension 1:10 000 in Mueller Hinton broth to obtain a bacterial target concentration of 1×10^4 cfu/ml. Determine the initial inoculation by serially diluting 0.1 ml in 0.9 ml blanks of sterile PBS and plating 0.1 ml aliquots to LA plates, preferably. • 5. Different concentrations of the tested compound are prepared in 0.6-0.8 ml of the final dilution of bacterial suspension and placed in 2-ml test tubes. • 6. Incubate test tubes in an orbital shaker incubator at 37° C. for 24 h.
(§3) • 7. Analyze visible growth, i.e. “Foggy” or “Clear”. MIC is being defined as the interval between the highest “Foggy” and the lowest “Clear” concentration of the compound.
(*) When testing Candida albicans, Yeast extract Peptone Dextrose (YPD) broth is being used.
(**) For Candida albicans it is equal to 1×10^7
Different concentrations of PDEA were also prepared in Yeast extract Peptone Dextrose (YPD) broth. Candida albicans were inoculated to a concentration of 20 000 CFU/ml and incubated at 37° C. for 24 hours. Readouts were “Clear” and “Foggy”.
Different concentrations of the quaternary ammonium PDEA (Example 2) were also prepared in Yeast extract Peptone Dextrose (YPD) broth. Candida albicans were inoculated to a concentration of 20 000 CFU/ml and incubated at 37° C. for 24 hours. Readouts were “Clear” and “Foggy”.
Different concentrations of the Para position-PDEA” is (S)-4-pyridylthio cysteamine were also prepared in Yeast extract Peptone Dextrose (YPD) broth. Candida albicans were inoculated to a concentration of 20 000 CFU/ml and incubated at 37° C. for 24 hours. Readouts were “Clear” and “Foggy”.
Different concentrations of “Carboxylic acid PDEA” is 3-(2-Pyridyldithio)propanoic acid (CAS: 68617-64-1) were also prepared in Yeast extract Peptone Dextrose (YPD) broth. Candida albicans were inoculated to a concentration of 20 000 CFU/ml and incubated at 37° C. for 24 hours. Readouts were “Clear” and “Foggy”.

[1] = system: Staphylococcus epidermidis Se19 (Clinical Isolate, Jan Ingemar Falk); assay: Minimum inhibitory concentration (MIC), visible growth; details: for MIC: Staphylococcus epidermidis
Experimental: as §1, §2, §3
(§4) Different concentrations of PDEA (Example 1) in Mueller Hinton medium were prepared. Bacteria were inoculated to a concentration of 20 000 CFU/ml and incubated at 37° C. for 24 hours. Minimum inhibitory concentrations (MICs) were determined by analyzing visible growth, i.e., readouts were “Clear” and “Foggy”.
(§5) Different concentrations of the quaternary ammonium PDEA (Example 2) in Mueller Hinton medium were prepared. Bacteria were inoculated to a concentration of 20 000 CFU/ml and incubated at 37° C. for 24 hours. Minimum inhibitory concentrations (MICs) were determined by analyzing visible growth, i.e., readouts were “Clear” and “Foggy”.
(§6) Different concentrations of this compound in Mueller Hinton medium were prepared. Bacteria were inoculated to a concentration of 20 000 CFU/ml and incubated at 37° C. for 24 hours. Minimum inhibitory concentrations (MICs) were determined by analyzing visible growth, i.e., readouts were “Clear” and “Foggy”.
(§7) Different concentrations of this compound were prepared in Mueller Hinton broth. Bacteria were inoculated to a concentration of 20 000 CFU/ml and incubated at 37° C. for 24 hours. Minimum inhibitory concentrations (MICs) were determined by analyzing visible growth, i.e., readouts were “Clear” and “Foggy”.

[2] = system: Enterococcus faecium #11 (KI, Clinical Isolate); assay: as above; details: for MIC: Enterococcus faecium
Experimental: as §1, §2, §3, §4, §5, §6, §7

[3] = system: Pseudomonas aeruginosa PA02; assay: as above; details: for MIC: Pseudomonas aeruginosa
Experimental: as §1, §2, §3, §4, §5, §6, §7

[4] = system: Enterococcus faecalis #28 (KI, Clinical Isolate); assay: as above; details: for MIC: Enterococcus faecalis
Experimental: as §1, §2, §3, §4, §5, §6, §7

[5] = system: Klebsiella pneumoniae AO15200; assay: as above; details: for MIC: Klebsiella pneumoniae
Experimental: as §1, §2, §3, §4, §5, §6, §7

Escherichia coli CFT073 = assay: as above; details: for MIC: Escherichia coli
Experimental: as §1, §2, §3, §4, §5, §6, §7

[6] = system: Staphylococcus aureus B5381; assay: as above; details: for MIC: Staphylococcus aureus
Experimental: as §1, §2, §3, §4, §5, §6, §7

[7] = Mueller Hinton, 20 000 CFU/ml, 37° C., 24 hours, read-out: MIC

C[N+](C)(C)CCSSc1ccccn1 [Example 2, 2-(2-Pyridyldisulanyl)ethan-(trimethylammonium) chloride]
Foggy: visible growth readout (Candida albicans; 0.11 mM) | visible growth readout (Candida albicans; 0.225 mM) | visible growth readout ([1]; 0.025 mM) | visible growth readout ([1]; 0.055 mM) | visible growth readout ([2]; 0.025 mM) | visible growth readout ([2]; 0.055 mM) | visible growth readout ([3]; 0.11 mM) | visible growth readout ([3]; 0.225 mM) | visible growth readout ([3]; 0.55 mM) | visible growth readout ([4]; 0.11 mM) | visible growth readout ([5]; 0.11 mM) | visible growth readout ([5]; 0.225 mM) | visible growth readout (Escherichia coli CFT073; 0.11 mM) | visible growth readout (Escherichia coli CFT073; 0.225 mM) | visible growth readout ([6]; 0.11 mM) | visible growth readout ([6]; 0.225 mM) | visible growth readout ([6]; 0.55 mM)
225 to 550 µM: MIC (Candida albicans; 24 h) | MIC ([5]; AO15200, 24 h) | MIC (Escherichia coli CFT073; CFT073, 24 h)
110 to 225 µM: MIC ([4]; 24 h)
55 to 110 µM: MIC ([1]; 24 h) | MIC ([2]; 24 h)
550 to 1120 µM: MIC ([3]; PA02, 24 h) | MIC ([6]; B5381, 24 h)
Clear: visible growth readout (Candida albicans; 0.55 mM) | visible growth readout (Candida albicans; 1.1 mM) | visible growth readout (Candida albicans; 2.2 mM) | visible growth readout (Candida albicans; 4.4 mM) | visible growth readout ([1]; 0.11 mM) | visible growth readout ([1]; 0.225 mM) | visible growth readout ([2]; 0.11 mM) | visible growth readout ([2]; 0.225 mM) | visible growth readout ([3]; 1.125 mM) | visible growth readout ([4]; 0.225 mM) | visible growth readout ([4]; 0.55 mM) | visible growth readout ([4]; 1.125 mM) | visible growth readout ([5]; 0.55 mM) | visible growth readout ([5]; 1.125 mM) | visible growth readout (Escherichia coli CFT073; 0.55 mM) | visible growth readout (Escherichia coli CFT073; 1.125 mM) | visible growth readout ([6]; 1.125 mM)

NCCSSc1ccncc1 [Example 3, (S)-4-pyridylthio cysteamine]
Foggy: visible growth readout (Candida albicans; 0.01 mM) | visible growth readout (Candida albicans; 0.05 mM) | visible growth readout (Candida albicans; 0.1 mM) | visible growth readout (Candida albicans; 0.2 mM) | visible growth readout (Candida albicans; 0.4 mM) | visible growth readout (Candida albicans; 0.8 mM) | visible growth readout (Candida albicans; 1.6 mM) | visible growth readout ([1]; 0.01 mM) | visible growth readout ([1]; 0.05 mM) | visible growth readout ([1]; 0.1 mM) | visible growth readout ([2]; 0.01 mM) | visible growth readout ([2]; 0.05 mM) | visible growth readout ([2]; 0.1 mM) | visible growth readout ([3]; 0.01 mM) | visible growth readout ([3]; 0.05 mM) | visible growth readout ([3]; 0.1 mM) | visible growth readout ([3]; 0.2 mM) | visible growth readout ([3]; 0.4 mM) | visible growth readout ([4]; 0.01 mM) | visible growth readout ([4]; 0.05 mM) | visible growth readout ([4]; 0.1 mM) | visible growth readout ([4]; 0.2 mM) | visible growth readout ([5]; 0.01 mM) | visible growth readout ([5]; 0.05 mM) | visible growth readout ([5]; 0.1 mM) | visible growth readout ([5]; 0.2 mM) | visible growth readout (Escherichia coli CFT073; 0.01 mM) | visible growth readout (Escherichia coli CFT073; 0.05 mM) | visible growth readout (Escherichia coli CFT073; 0.1 mM) | visible growth readout (Escherichia coli CFT073; 0.2 mM) | visible growth readout ([6]; 0.01 mM) | visible growth readout ([6]; 0.05 mM) | visible growth readout ([6]; 0.1 mM) | visible growth readout ([6]; 0.2 mM)
1600 to 3200 µM: MIC (Candida albicans; YPD broth, 20 000 CFU/ml, 37° C., 24 hours, read-out: MIC)
100 to 200 µM: MIC [1, 7] | MIC [2, 7]
400 to 800 µM: MIC ([3]; PA02, Mueller Hinton, 20 000 CFU/ml, 37° C., 24 hours, read-out: MIC)
Clear: visible growth readout (Candida albicans; 3.2 mM) | visible growth readout ([1]; 0.2 mM) | visible growth readout ([1]; 0.4 mM) | visible growth readout ([1]; 0.8 mM) | visible growth readout ([1]; 1.6 mM) | visible growth readout ([1]; 3.2 mM) | visible growth readout ([2]; 0.2 mM) | visible growth readout ([2]; 0.4 mM) | visible growth readout ([2]; 0.8 mM) | visible growth readout ([2]; 1.6 mM) | visible growth readout ([2]; 3.2 mM) | visible growth readout ([3]; 0.8 mM) | visible growth readout ([3]; 1.6 mM) | visible growth readout ([3]; 3.2 mM) | visible growth readout ([4]; 0.4 mM) | visible growth readout ([4]; 0.8 mM) | visible growth readout ([4]; 1.6 mM) | visible growth readout ([4]; 3.2 mM) | visible growth readout ([5]; 0.4 mM) | visible growth readout ([5]; 0.8 mM) | visible growth readout ([5]; 1.6 mM) | visible growth readout ([5]; 3.2 mM) | visible growth readout (Escherichia coli CFT073; 0.4 mM) | visible growth readout (Escherichia coli CFT073; 0.8 mM) | visible growth readout (Escherichia coli CFT073; 1.6 mM) | visible growth readout (Escherichia coli CFT073; 3.2 mM) | visible growth readout ([6]; 0.4 mM) | visible growth readout ([6]; 0.8 mM) | visible growth readout ([6]; 1.6 mM) | visible growth readout ([6]; 3.2 mM)
200 to 400 µM: MIC [4, 7] | MIC ([5]; AO15200, Mueller Hinton, 20 000 CFU/ml, 37° C., 24 hours, read-out: MIC) | MIC (Escherichia coli CFT073; CFT073, Mueller Hinton, 20 000 CFU/ml, 37° C., 24 hours, read-out: MIC) | MIC ([6]; B5381, Mueller Hinton, 20 000 CFU/ml, 37° C., 24 hours, read-out: MIC)
